Several values for one entry are separate records, joined by “and”; a condition that tells them apart may be missing. Equal values may be shown once. Entries after “also recorded” stand apart in the source; their conditions may differ. Read-outs that look alike come from different tables or passages of the source.
Tests used:
Fh.TRPMPZQ = experiment: Ca2+ reporter (FLIPR) activation assay, Fh.TRPMPZQ in HEK293 cells; format: cell-based, Fasciola hepatica; conditions: at the tested concentrations, data not shown
Description: (§1) Finally, selectivity for Sm.TRPMPZQ was assessed by profiling responses on the F. hepatica (Fh.TRPMPZQ) and E. granulosus (Eg.TRPMPZQ) TRPMPZQ orthologs, as well as the schistosome TRPM paralog Sm.TRPMMCLZ, a distinct TRPM channel activated by meclonazepam. Meclonazepam is an anthelmintic benzodiazepine known for its toxicity to juvenile schistosome worms.
(§2) The Ca^2+ reporter assay was performed using a Fluorescence Imaging Plate Reader (FLIPR) system, as described in the Supporting Information. […]
(§3) The half-maximal inhibitory
(§4) Windows (GraphPad Software, Boston, MA, USA; www.graphpad.com). […]
(§5) with DMSO as a negative control. […]
(§6) reader. […] The fluorescence
(§7) Untransfected HEK293 cells were used as a control.
(§8) 10% fetal bovine serum (FBS). […]
(§9) atmosphere containing 5% CO₂. Following incubation, the growth medium was removed and […]
(§10) buffer containing 2.5 mM probenecid in HBSS (with Ca²⁺ and Mg²⁺), 20 mM HEPES, 0.3% BSA (Sigma, A7030), and 0.03% L-ascorbic acid (Sigma). Cells were incubated for 40 minutes at 37 °C and subsequently for 20 minutes at room temperature. A total of seven PZQ derivatives were tested, using racemic PZQ included as a positive control on each assay plate. Drug dilutions were prepared in assay buffer without dye and probenecid and dispensed into separate flat-bottom 384-well plates. Calcium flux measurements were performed at room temperature using a […]
(§11) instrument (Molecular Devices). Baseline fluorescence was recorded for 20 seconds, followed by the addition of 5 µL of each drug solution, after which fluorescence was measured continuously for 250 seconds. […]

Sm.TRPMMCLZ = experiment: Ca2+ reporter (FLIPR) activation assay, Sm.TRPMMCLZ in HEK293 cells; format: cell-based, Schistosoma mansoni; conditions: at the tested concentrations, data not shown
Description: as §1, §2, §3, §4, §5, §6, §7, §8, §9, §10, §11

[1] = system: adult schistosomes (male and female worms); experiment: Adult worm ex vivo high-content image-based motility assay; format: cell-based, Schistosoma mansoni
Description: Adult schistosomes’ motility was determined using a high-content assay previously developed by our group, , with images analyzed in CellProfiler software. More details are provided in the Supporting Information.
(§12) Adult worm ex-vivo high-content assay
“Area” and “False Negative Rate” from the MeasureObjectSizeShape and MeasureObjectOverlap modules, respectively. These measurements were then modeled by a multilevel generalized linear statistical model. The effects of the experimental treatments on […]
as §3, §4
with DMSO as a negative control.

Eg.TRPMPZQ = Eg.TRPMPZQ (Echinococcus granulosus, UniProt W6UVV9); experiment: cell-based; conditions: HEK293, Ca2+ reporter, mean ± standard deviation; for Emax: read-out: Bmax, Eg.TRPMPZQ activation
[2] = system: HepG2 hepatic epithelial cells; experiment: in vitro; conditions: for Selectivity Index (CC50/EC50), Female: HepG2 CC50 / female worm motility EC50, 48 h; for Selectivity Index (CC50/EC50), Male: HepG2 CC50 / male worm motility EC50, 48 h
Description: (§13) Next, we conducted a more detailed investigation by performing dose–response assays with each compound on HepG2 hepatic epithelial cells, as the liver is one of the major organs affected in intestinal schistosomiasis.
(§14) More details are provided in the Supporting Information.
as §12
(§15) Male and female worms were placed in 96-well microplates (one worm per well) and incubated […]
(§16) to 72 hours. Brightfield timelapse images (100 images, 0.3-second intervals) were captured from each well before, immediately after, and every 24 hours following compound addition using an ImageXpress Micro Confocal High Content System equipped with a 2x objective. Image analysis was performed through a custom pipeline in CellProfiler software (v. 4.2.1, Windows OS).57 During analysis, the area of each worm and its displacement between consecutive image captures (i.e., images taken at successive time points) were measured using the parameters “Area” and “False Negative Rate” from the MeasureObjectSizeShape and MeasureObjectOverlap modules, respectively. These measurements were then modeled by a multilevel generalized linear statistical model. The effects of the experimental treatments on parasite motility were estimated with the integrated nested Laplace approximation (INLA) method, available in the INLA package of R (https://www.r-inla.org). The half-maximal inhibitory concentration (EC50) of each compound was calculated based on the worms' estimated motility using the […] 4-parameter logistic equation in GraphPad Prism version 9.0.0 for Windows (GraphPad Software, Boston, MA, USA; www.graphpad.com). […]
(§17) either at a fixed concentration (10 µM) or across a range of concentrations (0.0001–300 µM), or with DMSO as a negative control. Two hours before the end of the experiment (t0), a resazurin solution (final concentration: 0.01 mg/mL) was added to each well and the first fluorescence […]
(§18) reader. At the end of the incubation (t1), a second reading was performed. The fluorescence attributed solely to resorufin was measured by subtracting the fluorescence readings at t0 from those at t1. The results were expressed as percentual cell viability considering negative control

in vitro = conditions: human, HepG2 cytotoxicity (CC50)
Description: as §13, §14, §12, §15, §16, §17, §18

Sm.TRPMPZQ (wild-type) = Sm.TRPMPZQ (wild-type) (Schistosoma mansoni, UniProt A0A5K4F0X5); experiment: Ca2+ reporter (FLIPR) activation assay, wild-type Sm.TRPMPZQ in HEK293 cells; format: cell-based
Description: as §2, §3, §4, §5, §6, §7, §8, §9
buffer containing 2.5 mM probenecid in HBSS (with Ca²⁺ and Mg²⁺), 20 mM HEPES, 0.3% BSA (Sigma, A7030), and 0.03% L-ascorbic acid (Sigma). Cells were incubated for 40 minutes at 37 °C and subsequently for 20 minutes at room temperature. […]
prepared in assay buffer without dye and probenecid and dispensed into separate flat-bottom 384-well plates. Calcium flux measurements were performed at room temperature using a […]
as §11

juvenile schistosomes = experiment: Microscopy analysis of juvenile morphology and motility (viability score 0-3); conditions: 10 μM, 72 h, Table S1
[3] = Schistosoma mansoni, 0 h, female adult worms, 0 h (immediately after addition), single experiment or geometric mean, read-out: Female worm motility inhibition (EC50)
[4] = Schistosoma mansoni, 0 h, male adult worms, 0 h (immediately after addition), single experiment or geometric mean, read-out: Male worm motility inhibition (EC50)
[5] = Schistosoma mansoni, 0 h, male, 0 h, individual experiments, read-out: Male worm motility inhibition (EC50), values of independent experiments
[6] = Schistosoma mansoni, 24 h, female adult worms, 24 h, single experiment or geometric mean, read-out: Female worm motility inhibition (EC50)
[7] = Schistosoma mansoni, 24 h, male adult worms, 24 h, single experiment or geometric mean, read-out: Male worm motility inhibition (EC50)
[8] = Schistosoma mansoni, 24 h, male, 24 h, individual experiments, read-out: Male worm motility inhibition (EC50), values of independent experiments
[9] = Schistosoma mansoni, 48 h, female adult worms, 48 h, single experiment or geometric mean, read-out: Female worm motility inhibition (EC50)
[10] = Schistosoma mansoni, 48 h, male adult worms, 48 h, single experiment or geometric mean, read-out: Male worm motility inhibition (EC50)
[11] = Schistosoma mansoni, 48 h, male, 48 h, individual experiments, read-out: Male worm motility inhibition (EC50), values of independent experiments
[12] = Schistosoma mansoni, 72 h, female adult worms, 72 h, single experiment or geometric mean, read-out: Female worm motility inhibition (EC50)
[13] = Schistosoma mansoni, 72 h, male adult worms, 72 h, single experiment or geometric mean, read-out: Male worm motility inhibition (EC50)
[14] = Schistosoma mansoni, 72 h, male, 72 h, individual experiments, read-out: Male worm motility inhibition (EC50), values of independent experiments
[15] = female adult worms, 0 h (immediately after addition), single experiment or geometric mean, read-out: Female worm motility inhibition (EC50)
[16] = female adult worms, 24 h, single experiment or geometric mean, read-out: Female worm motility inhibition (EC50)
[17] = male adult worms, 0 h (immediately after addition), single experiment or geometric mean, read-out: Male worm motility inhibition (EC50)
[18] = male adult worms, 48 h, single experiment or geometric mean, read-out: Male worm motility inhibition (EC50)
[19] = male adult worms, 72 h, single experiment or geometric mean, read-out: Male worm motility inhibition (EC50)
[20] = male, 24 h, individual experiments, read-out: Male worm motility inhibition (EC50), values of independent experiments
[21] = male, 48 h, individual experiments, read-out: Male worm motility inhibition (EC50), values of independent experiments
[22] = male, 72 h, individual experiments, read-out: Male worm motility inhibition (EC50), values of independent experiments
[23] = values of independent experiments

Sequence of Sm.TRPMPZQ (wild-type) (A0A5K4F0X5 entry or part of it): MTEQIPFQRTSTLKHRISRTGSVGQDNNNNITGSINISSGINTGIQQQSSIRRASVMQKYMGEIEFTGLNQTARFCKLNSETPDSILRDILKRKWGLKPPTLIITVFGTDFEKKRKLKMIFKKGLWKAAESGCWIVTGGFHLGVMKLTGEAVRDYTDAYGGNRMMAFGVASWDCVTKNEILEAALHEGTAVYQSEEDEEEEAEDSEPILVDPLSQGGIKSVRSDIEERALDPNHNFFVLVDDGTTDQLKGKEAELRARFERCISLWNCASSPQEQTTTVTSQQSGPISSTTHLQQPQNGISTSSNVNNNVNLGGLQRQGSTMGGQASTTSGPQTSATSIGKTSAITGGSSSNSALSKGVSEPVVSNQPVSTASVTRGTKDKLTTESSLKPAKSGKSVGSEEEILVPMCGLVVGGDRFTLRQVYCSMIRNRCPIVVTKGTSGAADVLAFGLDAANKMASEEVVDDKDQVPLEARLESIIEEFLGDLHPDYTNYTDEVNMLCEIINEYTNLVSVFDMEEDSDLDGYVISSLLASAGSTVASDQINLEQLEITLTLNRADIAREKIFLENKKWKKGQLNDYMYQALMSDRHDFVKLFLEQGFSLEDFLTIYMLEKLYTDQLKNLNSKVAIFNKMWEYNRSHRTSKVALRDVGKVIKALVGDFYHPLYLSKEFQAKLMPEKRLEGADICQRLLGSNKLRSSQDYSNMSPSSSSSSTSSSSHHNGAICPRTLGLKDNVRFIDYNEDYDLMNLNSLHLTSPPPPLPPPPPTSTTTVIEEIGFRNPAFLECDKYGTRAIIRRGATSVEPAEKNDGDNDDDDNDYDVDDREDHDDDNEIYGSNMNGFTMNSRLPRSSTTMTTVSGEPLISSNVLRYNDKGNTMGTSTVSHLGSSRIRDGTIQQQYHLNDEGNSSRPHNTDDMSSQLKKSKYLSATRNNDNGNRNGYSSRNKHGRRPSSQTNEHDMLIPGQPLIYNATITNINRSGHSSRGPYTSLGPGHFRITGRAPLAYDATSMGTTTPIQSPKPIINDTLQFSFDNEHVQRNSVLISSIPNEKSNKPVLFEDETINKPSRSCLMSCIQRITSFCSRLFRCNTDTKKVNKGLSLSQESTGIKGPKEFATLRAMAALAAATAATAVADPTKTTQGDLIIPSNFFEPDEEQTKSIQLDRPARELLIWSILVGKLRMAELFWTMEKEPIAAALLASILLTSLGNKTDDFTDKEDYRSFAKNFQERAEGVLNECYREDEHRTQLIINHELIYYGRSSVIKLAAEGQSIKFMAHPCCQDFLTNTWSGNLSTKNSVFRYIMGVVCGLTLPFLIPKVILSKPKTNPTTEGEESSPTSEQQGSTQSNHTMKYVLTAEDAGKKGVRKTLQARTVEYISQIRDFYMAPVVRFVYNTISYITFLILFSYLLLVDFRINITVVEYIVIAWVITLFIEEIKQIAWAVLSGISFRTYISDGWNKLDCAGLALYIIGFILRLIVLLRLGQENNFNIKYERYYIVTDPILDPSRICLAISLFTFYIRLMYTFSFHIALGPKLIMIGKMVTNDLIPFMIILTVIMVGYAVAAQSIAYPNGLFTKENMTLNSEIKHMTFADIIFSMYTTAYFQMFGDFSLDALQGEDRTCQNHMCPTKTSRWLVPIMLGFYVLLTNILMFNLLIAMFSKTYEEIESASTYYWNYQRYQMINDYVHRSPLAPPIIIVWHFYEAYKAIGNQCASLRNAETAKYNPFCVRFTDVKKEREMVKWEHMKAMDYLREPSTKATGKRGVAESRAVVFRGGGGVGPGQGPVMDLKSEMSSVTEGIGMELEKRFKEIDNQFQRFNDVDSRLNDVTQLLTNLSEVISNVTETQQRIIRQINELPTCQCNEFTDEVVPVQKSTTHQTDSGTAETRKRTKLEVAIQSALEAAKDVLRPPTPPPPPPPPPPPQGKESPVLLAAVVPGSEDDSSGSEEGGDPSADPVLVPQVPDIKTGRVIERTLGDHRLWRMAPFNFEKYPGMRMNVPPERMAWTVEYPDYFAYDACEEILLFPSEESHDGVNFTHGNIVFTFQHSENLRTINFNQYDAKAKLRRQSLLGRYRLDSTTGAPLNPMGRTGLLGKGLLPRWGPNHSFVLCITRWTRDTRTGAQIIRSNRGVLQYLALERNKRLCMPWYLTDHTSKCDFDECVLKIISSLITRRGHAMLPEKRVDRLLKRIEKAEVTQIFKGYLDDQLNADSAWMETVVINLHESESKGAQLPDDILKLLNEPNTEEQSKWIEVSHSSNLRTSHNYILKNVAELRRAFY
Sequence of Eg.TRPMPZQ (W6UVV9 entry or part of it): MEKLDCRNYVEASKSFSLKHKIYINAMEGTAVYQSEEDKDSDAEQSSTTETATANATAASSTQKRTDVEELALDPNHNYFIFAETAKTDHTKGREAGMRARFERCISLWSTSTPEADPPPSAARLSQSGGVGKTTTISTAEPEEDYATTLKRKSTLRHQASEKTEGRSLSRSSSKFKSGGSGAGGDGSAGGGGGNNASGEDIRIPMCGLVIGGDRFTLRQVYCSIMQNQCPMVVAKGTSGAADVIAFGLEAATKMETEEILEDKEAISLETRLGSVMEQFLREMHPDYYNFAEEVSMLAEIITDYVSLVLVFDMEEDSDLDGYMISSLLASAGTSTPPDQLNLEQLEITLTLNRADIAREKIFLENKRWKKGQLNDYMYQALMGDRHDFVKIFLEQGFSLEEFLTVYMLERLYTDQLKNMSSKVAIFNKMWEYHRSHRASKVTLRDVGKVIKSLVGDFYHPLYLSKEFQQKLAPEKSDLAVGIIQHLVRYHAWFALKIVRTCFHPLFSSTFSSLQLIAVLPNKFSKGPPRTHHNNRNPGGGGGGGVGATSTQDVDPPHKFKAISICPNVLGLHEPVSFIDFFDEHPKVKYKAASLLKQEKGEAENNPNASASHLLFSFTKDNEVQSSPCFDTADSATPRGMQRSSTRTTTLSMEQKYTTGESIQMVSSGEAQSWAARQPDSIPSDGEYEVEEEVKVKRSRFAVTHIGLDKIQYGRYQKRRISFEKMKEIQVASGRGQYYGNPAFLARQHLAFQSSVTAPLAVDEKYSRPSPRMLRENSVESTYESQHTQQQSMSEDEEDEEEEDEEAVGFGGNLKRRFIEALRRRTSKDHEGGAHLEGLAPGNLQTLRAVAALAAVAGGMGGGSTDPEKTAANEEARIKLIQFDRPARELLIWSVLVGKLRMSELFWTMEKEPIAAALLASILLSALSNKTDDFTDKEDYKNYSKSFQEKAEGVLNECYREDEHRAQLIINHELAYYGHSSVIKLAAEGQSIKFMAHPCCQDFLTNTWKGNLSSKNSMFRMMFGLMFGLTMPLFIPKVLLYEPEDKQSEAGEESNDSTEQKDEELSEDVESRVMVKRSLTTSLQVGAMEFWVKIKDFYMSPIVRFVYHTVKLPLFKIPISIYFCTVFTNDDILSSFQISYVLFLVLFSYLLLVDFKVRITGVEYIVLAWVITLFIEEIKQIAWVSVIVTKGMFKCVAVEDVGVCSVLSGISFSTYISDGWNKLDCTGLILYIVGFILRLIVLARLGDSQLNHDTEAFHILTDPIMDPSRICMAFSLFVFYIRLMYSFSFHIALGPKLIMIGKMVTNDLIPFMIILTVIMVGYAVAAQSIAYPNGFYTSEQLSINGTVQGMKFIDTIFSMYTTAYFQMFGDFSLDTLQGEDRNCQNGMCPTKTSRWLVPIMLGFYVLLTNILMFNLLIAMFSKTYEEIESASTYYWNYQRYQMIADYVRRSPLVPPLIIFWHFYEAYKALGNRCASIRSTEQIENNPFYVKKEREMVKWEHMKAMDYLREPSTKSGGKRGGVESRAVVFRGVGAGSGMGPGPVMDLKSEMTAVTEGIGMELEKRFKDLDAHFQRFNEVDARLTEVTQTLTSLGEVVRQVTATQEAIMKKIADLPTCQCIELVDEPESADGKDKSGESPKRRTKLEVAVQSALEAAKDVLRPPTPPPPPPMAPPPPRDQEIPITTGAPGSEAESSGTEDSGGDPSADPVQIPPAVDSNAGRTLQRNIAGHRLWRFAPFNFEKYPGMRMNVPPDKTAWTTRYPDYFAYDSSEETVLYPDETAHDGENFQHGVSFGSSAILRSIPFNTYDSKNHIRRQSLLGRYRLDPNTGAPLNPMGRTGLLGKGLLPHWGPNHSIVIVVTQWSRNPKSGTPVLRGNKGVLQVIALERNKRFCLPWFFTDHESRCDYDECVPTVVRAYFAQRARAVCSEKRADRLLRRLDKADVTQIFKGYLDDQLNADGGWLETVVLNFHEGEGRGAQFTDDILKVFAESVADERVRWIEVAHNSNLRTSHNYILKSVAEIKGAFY

For `O=C(C1CCCCC1)N1CC(=O)N2CCc3ccc([N+](=O)[O-])cc3C2C1` (centres unmarked) [Compound 2, 9-NO2–PZQ], the “activation of Fh.TRPMPZQ” value (Fh.TRPMPZQ) was “did not activate”, the “activation of Sm.TRPMMCLZ” value (Sm.TRPMMCLZ) was “did not activate” and the EC50 [1, 3] was 27.7 µM. The EC50 [1, 4] was 10.7 µM, the EC50 [1, 5] was 10 µM and the EC50 [1, 6] was 28.8 µM. It also gave an EC50 [1, 7] of 14.3 µM, an EC50 [1, 8] of 10.3 µM and an EC50 [1, 9] of 29.1 µM. It also gave an EC50 [1, 10] of 15.9 µM, an EC50 [1, 11] of 11.6 µM and an EC50 [1, 12] of 30 µM. For the same molecule, the EC50 [1, 13] was 15.4 µM, the EC50 [1, 14] was 11.9 µM and the EC50 [1, 15] was 27.7 µM. For the same molecule, the EC50 [1, 16] was 29 µM, the EC50 ([1]; female adult worms, 48 h, single experiment or geometric mean, read-out: Female worm motility inhibition (EC50)) was 29 µM and the EC50 [1, 17] was 11 µM. The EC50 ([1]; male adult worms, 24 h, single experiment or geometric mean, read-out: Male worm motility inhibition (EC50)) was 14 µM, the EC50 [1, 18] was 16 µM and the EC50 [1, 19] was 15 µM. For the same molecule, the EC50 [1, 20] was 19.8 µM, the EC50 [1, 21] was 21.7 µM and the EC50 [1, 22] was 19.9 µM. The Emax (Eg.TRPMPZQ) was 114 ± 10.5%, the “Selectivity Index (CC50/EC50), Female” value [2] was 12.7 and 13 and the “Selectivity Index (CC50/EC50), Male” value [2] was 23.1 and 23. It also gave a CC50 at 48 h (in vitro) of 368 µM, a CC50 at 48 h (in vitro; [23]) of 354 µM and an EC50 (Sm.TRPMPZQ (wild-type); 0.001 to 100 μM) of 13.5 ± 0.49 µM. For the same molecule, the Emax (Sm.TRPMPZQ (wild-type); read-out: Bmax, wild-type Sm.TRPMPZQ activation) was 66.6 ± 1.98%, the “number of juvenile worms with viability score 0” value (juvenile schistosomes) was 70 and the “number of juvenile worms with viability score 1” value (juvenile schistosomes) was 3. For the same molecule, the “number of juvenile worms with viability score 2” value (juvenile schistosomes) was 7 and the “number of juvenile worms with viability score 3” value (juvenile schistosomes) was 74.

For `O=C(C1CCCCC1)N1CC(=O)N2CCc3ccc(-n4cc(C5=CCCCC5)nn4)cc3C2C1` (centres unmarked) [Compound 5b], the EC50 [1, 3] was 101 µM, the EC50 [1, 4] was 32.7 µM and the EC50 [1, 5] was 31.6 µM. It also gave an EC50 [1, 6] of 96.2 µM, an EC50 [1, 7] of 47 µM and an EC50 [1, 8] of 50.4 µM. For the same molecule, the EC50 [1, 9] was 95 µM, the EC50 [1, 10] was 49.2 µM and the EC50 [1, 11] was 54.2 µM. It also gave an EC50 [1, 12] of 89.1 µM, an EC50 [1, 13] of 40.5 µM and an EC50 [1, 14] of 44.7 µM. The EC50 ([1]; Schistosoma mansoni, female, 0-72 h, read-out: EC50 against female adult worms (motility), span over incubation times) was > 30 µM, the EC50 ([1]; Schistosoma mansoni, male, 0-72 h, read-out: EC50 against male adult worms (motility), span over incubation times) was > 30 µM and the EC50 [1, 15] was 101 µM. It also gave an EC50 [1, 16] of 96 µM, an EC50 ([1]; female adult worms, 72 h, single experiment or geometric mean, read-out: Female worm motility inhibition (EC50)) of 89 µM and an EC50 [1, 17] of 33 µM. The EC50 [1, 18] was 49 µM, the EC50 [1, 19] was 40 µM and the EC50 [1, 20] was 43.8 µM. The EC50 [1, 21] was 44.6 µM, the EC50 [1, 22] was 36.6 µM and the “EC50 for Eg.TRPMPZQ activation” value (Eg.TRPMPZQ) was “No signal”. The Emax (Eg.TRPMPZQ) was 10.4 ± 0.31%, the “Selectivity Index (CC50/EC50), Female” value [2] was 0.3 and the “Selectivity Index (CC50/EC50), Male” value [2] was 0.6. The “Selectivity Index (SI), sex not specified” value ([2]; HepG2 vs adult worms, 48 h) was < 1, the CC50 at 48 h (in vitro) was 28.5 µM and the CC50 at 48 h (in vitro; [23]) was 28.7 µM. The “Bmax, wild-type Sm.TRPMPZQ activation” value (Sm.TRPMPZQ (wild-type)) was “No activity”, the “EC50 for wild-type Sm.TRPMPZQ activation” value (Sm.TRPMPZQ (wild-type); 0.001 to 100 μM) was “failed to activate; also recorded: No activity” and the “number of juvenile worms with viability score 0” value (juvenile schistosomes) was 21. The “number of juvenile worms with viability score 1” value (juvenile schistosomes) was 1, the “number of juvenile worms with viability score 2” value (juvenile schistosomes) was 3 and the “number of juvenile worms with viability score 3” value (juvenile schistosomes) was 7.
